Drawing on US20210395256A1, “TYROSINE KINASE INHIBITORS, COMPOSITIONS AND METHODS THERE OF” (Betta Pharmaceuticals Co., Ltd., priority 2018, published 2021), this text covers inhibition and IC50 for 5 molecules.

For one data set, the target named is T1, CYP3A4 (Homo sapiens, UniProt P08684).
T1 construct: from tissue; host or cells: human liver microsomes
Nature of the data set: Cytochrome P450 inhibition, CYP3A4. The data set is classed as in vitro ADME. The conditions noted are these: 10 μM compound, human liver microsomes; for inhibition at 5 min, 10 µM: probe Midazolam (5 μM), substrate Midazolam, read-out: Inhibition percentage CYP3A4 (Midazolam); for inhibition at 10 min, 10 µM: probe Testosterone (50 μM), substrate Testosterone, read-out: Inhibition percentage CYP3A4 (Testosterone). How it is done:
(§1) Example 205 Cytochrome P450 Measurements
(§2) The cytochrome P450 was measured as the following procedure:
(§3) 1) A master solution containing phosphate buffer, ultra-pure H2O, MgCl2 solution and human liver microsomes was made according to Table 17, and then 1 μL of 2 mM of compound solution or 1 μL of DMSO (as without inhibitor control) was added to the above master solution. The final concentration of test compounds or control compounds was 10 μM.
6) For CYP3A4 inhibition, 1 μL of specific drug substrate (Midazolam: 1 mM) was added at the final concentration of 5 μM to the above solution.
7) For CYP3A4 inhibition, 1 μL of specific drug substrate (Testosterone: 10 mM) was added at the final concentration of 50 μM to the above solution.
(§4) 8) The mixture was pre-warmed at 37° C. for 5 min. The reaction was started by the addition of 20 μL of 10 mM NADPH solution at the final concentration of 1 mM and carried out at 37° C.
(§5) 9) The reaction was stopped by addition of 300 μL of cold quench solution (methanol containing internal standards (1S, 500 nM Labetalol, 100 nM Alprazolam and 2 μM Ketoprofen) at the designated time points (Phenacetin: 20 min; Paclitaxel: 10 min; Tolbutamide: 20 min; (s)-Mephenytoin: 20 min; Midazolam: 5 min; Testosterone: 10 min). Samples were vortexed for 5 minutes and centrifuged at 3220 g for 40 minutes at 4° C. And then 100 μL of the supernatant was transferred to a new 96-well plate with 100 μL or 200 μL water (depends on the LC-MS signal response and peak shape) for LC-MS/MS analysis.
(§6) All experiments were performed in duplicates.
(§7) Inhibition percentages for compounds against CYP1A2, CYP2C8, CYP2C9, CYP2C19, and […]

The next data set deals with T2, CYP2C19 (Homo sapiens, UniProt P33261).
T2 construct: from tissue; host or cells: human liver microsomes
T2 sequence (P33261 whole entry): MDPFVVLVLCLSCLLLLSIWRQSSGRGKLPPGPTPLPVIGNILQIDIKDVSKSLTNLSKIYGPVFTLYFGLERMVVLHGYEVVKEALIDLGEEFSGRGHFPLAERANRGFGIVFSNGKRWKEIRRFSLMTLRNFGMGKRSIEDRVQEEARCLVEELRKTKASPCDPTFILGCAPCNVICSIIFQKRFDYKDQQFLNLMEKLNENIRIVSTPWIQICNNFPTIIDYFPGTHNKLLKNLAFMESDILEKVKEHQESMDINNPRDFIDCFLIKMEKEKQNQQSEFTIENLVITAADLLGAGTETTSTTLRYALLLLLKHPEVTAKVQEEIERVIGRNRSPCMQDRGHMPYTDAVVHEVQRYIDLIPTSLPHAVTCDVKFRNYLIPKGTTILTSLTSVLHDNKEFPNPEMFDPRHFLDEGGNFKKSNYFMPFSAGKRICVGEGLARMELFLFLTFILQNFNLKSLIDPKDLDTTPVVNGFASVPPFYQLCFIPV
Nature of the data set: Cytochrome P450 inhibition, CYP2C19. In kind it is in vitro ADME. The conditions noted are these: probe (s)-Mephenytoin (50 μM); 10 μM compound, human liver microsomes, substrate (s)-Mephenytoin; read-out: Inhibition percentage CYP2C19 ((s)-Mephenytoin). How it is done: as §1, §2, §3
5) For CYP2C19 inhibition, 1 μL of specific drug substrate ((s)-Mephenytoin: 10 mM) was added at the final concentration of 50 μM to the above solution.
as §4, §5, §6, §7

Another data set addresses T3, CYP2C9 (Homo sapiens, UniProt P11712).
T3 construct: from tissue; host or cells: human liver microsomes
Nature of the data set: Cytochrome P450 inhibition, CYP2C9. In kind it is in vitro ADME. The conditions noted are these: probe Tolbutamide (200 μM); 10 μM compound, human liver microsomes, substrate Tolbutamide; read-out: Inhibition percentage CYP2C9 (Tolbutamide). As for the experimental part: as §1, §2, §3
4) For CYP2C9 inhibition, 1 μL of specific drug substrate (Tolbutamide: 40 mM) was added at the final concentration of 200 μM to the above solution.
as §4, §5, §6, §7

A further data set concerns the target T4, CYP2C8 (Homo sapiens, UniProt P10632).
T4 construct: from tissue; host or cells: human liver microsomes
T4 sequence (P10632 1-490): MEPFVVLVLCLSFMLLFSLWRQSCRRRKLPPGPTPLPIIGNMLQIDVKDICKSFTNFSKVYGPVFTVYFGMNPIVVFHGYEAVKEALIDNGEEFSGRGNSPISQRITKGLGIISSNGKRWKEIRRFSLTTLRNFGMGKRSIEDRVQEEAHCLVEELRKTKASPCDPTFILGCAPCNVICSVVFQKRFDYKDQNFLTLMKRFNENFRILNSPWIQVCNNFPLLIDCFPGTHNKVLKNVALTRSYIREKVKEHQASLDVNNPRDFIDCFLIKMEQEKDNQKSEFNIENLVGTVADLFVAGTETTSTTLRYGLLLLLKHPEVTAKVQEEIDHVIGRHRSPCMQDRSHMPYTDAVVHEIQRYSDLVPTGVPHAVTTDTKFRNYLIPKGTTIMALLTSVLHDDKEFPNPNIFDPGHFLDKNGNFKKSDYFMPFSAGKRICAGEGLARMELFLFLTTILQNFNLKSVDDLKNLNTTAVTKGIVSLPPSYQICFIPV
Nature of the data set: Cytochrome P450 inhibition, CYP2C8. In kind it is in vitro ADME. The conditions noted are these: probe Paclitaxel (5 μM); 10 μM compound, human liver microsomes, substrate Paclitaxel; read-out: Inhibition percentage CYP2C8 (Paclitaxel). As for the experimental part:
as §1, §2, §3
3) For CYP2C8 inhibition, 1 μL of specific drug substrate (Paclitaxel: 1 mM) was added at the final concentration of 5 μM to the above solution.
as §4, §5, §6, §7

A further data set addresses T5, Ba/F3-ETV6-NTRK3 (Homo sapiens, UniProt Q16288).
T5 construct: Ba/F3 cells with TPM3-NTRK1 or ETV6-NTRK3 fusion mutation gene stably overexpressed named Ba/F3-TPM3-NTRK1 and Ba/F3-ETV6-NTRK3; fused on or other part: P41212 (Transcription factor ETV6)
Nature of the data set: Ba/F3-ETV6-NTRK3 cells proliferation assay. The data set is classed as cell-based. The conditions noted are these: 72 h, CellTiter Glo. The gist of the method: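 Ba/F3 cells stably expressing TPM3-NTRK1 or ETV6-NTRK3 fusions, 2000/well, exposed 72 h to compound at 300 to 0.05 nM final (3-fold series, 0.5% DMSO). Viability by CellTiter-Glo luminescence; IC50 by four-parameter nonlinear regression.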

T1 sequence (P08684 whole entry): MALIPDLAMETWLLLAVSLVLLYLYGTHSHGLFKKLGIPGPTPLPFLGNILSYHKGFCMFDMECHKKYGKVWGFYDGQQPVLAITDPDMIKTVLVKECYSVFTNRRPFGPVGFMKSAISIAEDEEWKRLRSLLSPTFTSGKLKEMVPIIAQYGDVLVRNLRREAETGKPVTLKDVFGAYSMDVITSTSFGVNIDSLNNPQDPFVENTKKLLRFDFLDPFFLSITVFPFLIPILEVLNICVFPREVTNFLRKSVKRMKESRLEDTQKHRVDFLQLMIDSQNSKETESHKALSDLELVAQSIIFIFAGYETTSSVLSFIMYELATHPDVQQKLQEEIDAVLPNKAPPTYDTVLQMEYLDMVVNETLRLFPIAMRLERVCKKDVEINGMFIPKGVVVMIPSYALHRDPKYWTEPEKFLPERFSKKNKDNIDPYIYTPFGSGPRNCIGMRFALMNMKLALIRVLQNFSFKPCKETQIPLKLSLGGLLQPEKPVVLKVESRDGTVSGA
T3 sequence (P11712 whole entry): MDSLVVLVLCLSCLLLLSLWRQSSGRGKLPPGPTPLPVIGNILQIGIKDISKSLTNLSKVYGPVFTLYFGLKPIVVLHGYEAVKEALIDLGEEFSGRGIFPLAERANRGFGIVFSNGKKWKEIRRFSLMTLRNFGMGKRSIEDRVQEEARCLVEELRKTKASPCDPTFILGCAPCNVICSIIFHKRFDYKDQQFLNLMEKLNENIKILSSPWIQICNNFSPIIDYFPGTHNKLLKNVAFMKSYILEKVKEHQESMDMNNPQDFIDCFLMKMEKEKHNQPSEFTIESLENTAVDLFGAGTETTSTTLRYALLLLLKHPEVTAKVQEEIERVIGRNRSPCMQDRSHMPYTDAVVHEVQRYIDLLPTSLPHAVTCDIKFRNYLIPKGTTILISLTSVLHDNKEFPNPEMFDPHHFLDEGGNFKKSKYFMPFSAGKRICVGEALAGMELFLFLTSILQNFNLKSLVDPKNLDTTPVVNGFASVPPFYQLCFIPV
T5 sequence (Q16288 whole entry, the tested form may be a part): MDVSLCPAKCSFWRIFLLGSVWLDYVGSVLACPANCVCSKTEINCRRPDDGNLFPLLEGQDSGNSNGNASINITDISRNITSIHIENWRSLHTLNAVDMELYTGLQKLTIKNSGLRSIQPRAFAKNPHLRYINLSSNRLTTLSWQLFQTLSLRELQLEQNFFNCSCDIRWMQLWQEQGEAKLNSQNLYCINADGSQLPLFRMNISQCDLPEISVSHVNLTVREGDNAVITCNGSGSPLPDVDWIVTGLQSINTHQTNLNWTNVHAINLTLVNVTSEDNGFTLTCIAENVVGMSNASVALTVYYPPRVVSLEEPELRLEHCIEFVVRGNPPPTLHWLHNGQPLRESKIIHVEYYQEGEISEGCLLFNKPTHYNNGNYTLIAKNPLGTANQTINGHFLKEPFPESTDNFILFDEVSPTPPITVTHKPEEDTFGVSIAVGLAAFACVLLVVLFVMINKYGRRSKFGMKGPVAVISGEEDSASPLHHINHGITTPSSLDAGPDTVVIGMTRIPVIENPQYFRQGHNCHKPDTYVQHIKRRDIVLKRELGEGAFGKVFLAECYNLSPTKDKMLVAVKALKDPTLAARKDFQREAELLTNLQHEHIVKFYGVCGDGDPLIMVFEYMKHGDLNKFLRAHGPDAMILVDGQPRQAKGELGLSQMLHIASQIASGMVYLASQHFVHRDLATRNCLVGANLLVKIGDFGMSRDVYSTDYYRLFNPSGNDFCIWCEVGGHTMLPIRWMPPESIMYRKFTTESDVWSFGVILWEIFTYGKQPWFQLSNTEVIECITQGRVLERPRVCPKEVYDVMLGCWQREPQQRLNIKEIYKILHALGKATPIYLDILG

As to `Cc1nnc(-c2cnn3ccc(N4CCCC4c4cc(F)ccc4F)nc23)[nH]1` (centres unmarked) [Comparative compound A, 5-[2-(2,5-Difluorophenyl)pyrrolidin-1-yl]-3-(5-methyl-1H-1,2,4-triazol-3-yl)pyrazolo[1,5-a]pyrimidine, reference compound], the inhibition at 5 min, 10 µM on CYP3A4 was 70.1%. The figures for the inhibition at 10 min, 10 µM at CYP3A4 and on CYP2C8 were 38.3% and 19.3%, respectively. Moreover, the inhibition at 20 min, 10 µM at CYP2C19 is 13%; at CYP2C9, 25.4%.
For `C[C@H](O)c1nnc(-c2cnn3ccc(N4CCC[C@@H]4c4cc(F)ccc4F)nc23)[nH]1` [Compound 4, (S)-1-(5-(5-((R)-2-(2,5-difluorophenyl)pyrrolidin-1-yl)pyrazolo[1,5-a]pyrimidin-3-yl)-4H-1,2,4-triazol-3-yl)ethan-1-ol], the inhibition at 5 min, 10 µM at CYP3A4 stood at 20%. In addition, the inhibition at 10 min, 10 µM at CYP3A4 is 22.8%; at CYP2C8 it was 18.2%. At Ba/F3-ETV6-NTRK3, this molecule gave an IC50 of 2.78 nM. Moreover, the inhibition at 20 min, 10 µM at CYP2C19 was found to be 7.23%; on CYP2C9, 5.96%.
As for `CC(C)(O)c1nnc(-c2cnn3ccc(N4CCC[C@@H]4c4cc(F)ccc4F)nc23)[nH]1` [Compound 7, (R)-2-(5-(5-(2-(2,5-difluorophenyl)pyrrolidin-1-yl)pyrazolo[1,5-a]pyrimidin-3-yl)-4H-1,2,4-triazol-3-yl)propan-2-ol], on CYP3A4, the inhibition at 5 min, 10 µM worked out at 6.97%. For the same molecule, the inhibition at 10 min, 10 µM on CYP3A4 turned out to be 5.7%; at CYP2C8 it was 1.37%. The same molecule returned an IC50 against Ba/F3-ETV6-NTRK3 of 5.68 nM. For the same molecule, the figures for the inhibition at 20 min, 10 µM on CYP2C19 and at CYP2C9 were 6.79% and 22.7%, respectively.
On Ba/F3-ETV6-NTRK3, `C[C@H](N)c1nnc(-c2cnn3ccc(N4CCC[C@@H]4c4cc(F)ccc4F)nc23)[nH]1` [Compound 11, (S)-1-(5-(5-((R)-2-(2,5-difluorophenyl)pyrrolidin-1-yl)pyrazolo[1,5-a]pyrimidin-3-yl)-4H-1,2,4-triazol-3-yl)ethan-1-amine] registered an IC50 of 5.79 nM.
Regarding `OC(c1nnc(-c2cnn3ccc(N4CCC[C@@H]4c4cc(F)ccc4F)nc23)[nH]1)C(F)(F)F` (stereo partly drawn) [Compound 47, 1-(5-(5-((R)-2-(2,5-difluorophenyl)pyrrolidin-1-yl)pyrazolo[1,5-a]pyrimidin-3-yl)-4H-1,2,4-triazol-3-yl)-2,2,2-trifluoroethan-1-ol], the inhibition at 5 min, 10 µM on CYP3A4 is 22.4%. The inhibition at 10 min, 10 µM was found to be 29.5% on CYP3A4 and 32.8% on CYP2C8. Also, the inhibition at 20 min, 10 µM at CYP2C19 is 20.3%; at CYP2C9, 50.4%.
